Data taken from ChEMBL document CHEMBL4190299, “Design, Synthesis, and Cancer Cell Growth Inhibitory Activity of Triphenylphosphonium Derivatives of the Triterpenoid Betulin” (J Nat Prod, 2017).
Activity calls are given as the source filed them. The calls are words filed in the database; no cut-off is given here.

How the values were obtained:
MCF7 = test: cells; conditions: Homo sapiens, MCF7, 72 h
Description: Cytotoxicity against human MCF7 cells assessed as reduction in cell viability after 72 hrs by MTT assay

PC-3 [1] = test: Cytotoxicity against human PC3 cells assessed as reduction in cell viability after 72 hrs by MTT assay; format: functional, cell-based; conditions: PC-3, 72 h
[2] = Cytotoxicity against human HSF cells assessed as reduction in cell viability after 72 hrs by MTT assay; format: cell-based
PC-3 [3] = test: Induction of mitochondrial membrane potential loss in human PC3 cells assessed as fluorescence intensity at cytotoxic IC50 after 48 hrs by TMRE dye-based fluorescence assay based flow cytometry (reference value: 210.8); format: functional
PC-3 [4] = test: Induction of mitochondrial membrane potential loss in human PC3 cells assessed as fluorescence intensity at cytotoxic IC50 after 48 hrs by TMRE dye-based fluorescence assay based flow cytometry relative to untreated control; format: functional
PC-3 [5] = test: Induction of cell cycle arrest in human PC3 cells assessed as effect on G0/G1 phase at cytotoxic IC50 after 48 hrs by propidium iodide staining based flow cytometry; format: functional
PC-3 [6] = test: Induction of cell cycle arrest in human PC3 cells assessed as effect on S phase at cytotoxic IC50 after 48 hrs by propidium iodide staining based flow cytometry; format: functional
PC-3 [7] = test: Induction of cell cycle arrest in human PC3 cells assessed as effect on G2/M phase at cytotoxic IC50 after 48 hrs by propidium iodide staining based flow cytometry; format: functional

`COc1cccc2c1C(=O)c1c(O)c3c(c(O)c1C2=O)C[C@@](O)(C(=O)CO)C[C@@H]3O[C@H]1C[C@H](N)[C@H](O)[C@H](C)O1` [DOXORUBICIN] showed an IC50 (MCF7) of 150 nM.
Work on `C=C(C)[C@@H]1CC[C@]2(COC(=O)CCC[P+](c3ccccc3)(c3ccccc3)c3ccccc3)CC[C@]3(C)[C@H](CC[C@@H]4[C@@]5(C)CC[C@H](OC(=O)CCC[P+](c6ccccc6)(c6ccccc6)c6ccccc6)C(C)(C)[C@@H]5CC[C@]43C)[C@@H]12.[Br-].[Br-]` yielded an IC50 (PC-3 [1]) of 540 nM, an IC50 [2] of 860 nM and a Flu intensity (PC-3 [3]) of 90.1. For the same compound, the “fold change (FC)” value (PC-3 [4]) was 2, the Activity (PC-3 [5]) was “inactive” and the Activity (PC-3 [6]) was “inactive”. The Activity (PC-3 [7]) was “inactive” and the IC50 (MCF7) was 350 nM.
`C=C(C)[C@@H]1CC[C@]2(COC(=O)CCCC[P+](c3ccccc3)(c3ccccc3)c3ccccc3)CC[C@]3(C)[C@H](CC[C@@H]4[C@@]5(C)CC[C@H](O)C(C)(C)[C@@H]5CC[C@]43C)[C@@H]12.[Br-]` gave an IC50 (PC-3 [1]) of 120 nM, an IC50 [2] of 1500 nM and a Flu intensity (PC-3 [3]) of 186.6. For the same compound, the Activity (PC-3 [5]) was “inactive”, the Activity (PC-3 [6]) was “inactive” and the Activity (PC-3 [7]) was “inactive”. The IC50 (MCF7) was 700 nM.
For `C=C(C)[C@@H]1CC[C@]2(COC(=O)CCCCBr)CC[C@]3(C)[C@H](CC[C@@H]4[C@@]5(C)CC[C@H](OC(=O)CCCCBr)C(C)(C)[C@@H]5CC[C@]43C)[C@@H]12`, the Flu intensity (PC-3 [3]) was 187.9, the Activity (PC-3 [4]) was 10% and the Activity (PC-3 [5]) was “inactive”. The Activity (PC-3 [6]) was “inactive” and the Activity (PC-3 [7]) was “inactive”.
In the case of `C=C(C)[C@@H]1CC[C@]2(CO)CC[C@]3(C)[C@H](CC[C@@H]4[C@@]5(C)CC[C@H](O)C(C)(C)[C@@H]5CC[C@]43C)[C@@H]12` [BETULIN], the Flu intensity (PC-3 [3]) is reported as 205.9, the Activity (PC-3 [5]) is reported as “inactive” and the Activity (PC-3 [6]) is reported as “inactive”. The Activity (PC-3 [7]) was “inactive”.
For `C=C(C)[C@@H]1CC[C@]2(COC(=O)CCC[P+](c3ccccc3)(c3ccccc3)c3ccccc3)CC[C@]3(C)[C@H](CC[C@@H]4[C@@]5(C)CC[C@H](O)C(C)(C)[C@@H]5CC[C@]43C)[C@@H]12`, the IC50 (PC-3 [1]) was 160 nM, the IC50 [2] was 2100 nM and the IC50 (MCF7) was 430 nM.
In the case of `CC[C@]1(O)C[C@@H]2CN(CCc3c([nH]c4ccccc34)[C@@](C(=O)OC)(c3cc4c(cc3OC)N(C)[C@H]3[C@@](O)(C(=O)OC)[C@H](OC(C)=O)[C@]5(CC)C=CCN6CC[C@]43[C@@H]65)C2)C1` [VINBLASTINE], the IC50 (MCF7) is reported as 500 nM.
For `C=C(C)[C@@H]1CC[C@]2(COC(=O)CCCC[P+](c3ccccc3)(c3ccccc3)c3ccccc3)CC[C@]3(C)[C@H](CC[C@@H]4[C@@]5(C)CC[C@H](OC(=O)CCCC[P+](c6ccccc6)(c6ccccc6)c6ccccc6)C(C)(C)[C@@H]5CC[C@]43C)[C@@H]12.[Br-].[Br-]`, the IC50 (PC-3 [1]) was 470 nM, the IC50 [2] was 760 nM and the Flu intensity (PC-3 [3]) was 112.2. The “fold change (FC)” value (PC-3 [4]) was 2, the Activity (PC-3 [5]) was “inactive” and the Activity (PC-3 [6]) was “inactive”. For the same compound, the Activity (PC-3 [7]) was “inactive” and the IC50 (MCF7) was 480 nM.
For `C=C(C)[C@@H]1CC[C@]2(COC(=O)C[P+](c3ccccc3)(c3ccccc3)c3ccccc3)CC[C@]3(C)[C@H](CC[C@@H]4[C@@]5(C)CC[C@H](OC(=O)C[P+](c6ccccc6)(c6ccccc6)c6ccccc6)C(C)(C)[C@@H]5CC[C@]43C)[C@@H]12`, the IC50 (PC-3 [1]) was 6900 nM, the IC50 [2] was 5600 nM and the IC50 (MCF7) was 8700 nM.
Compound `C=C(C)[C@@H]1CC[C@]2(COC(=O)C[P+](c3ccccc3)(c3ccccc3)c3ccccc3)CC[C@]3(C)[C@H](CC[C@@H]4[C@@]5(C)CC[C@H](O)C(C)(C)[C@@H]5CC[C@]43C)[C@@H]12` has an IC50 (PC-3 [1]) of 6800 nM, an IC50 [2] of 9900 nM and an IC50 (MCF7) of over 10000 nM.
